One test deals with α-synuclein aggregates (Homo sapiens (Human), UniProt P37840). Briefly: ReNcell VM α-synuclein aggregation assay. It counts as cell-based. The note with it: 24 hour treatment, differentiated ReNcell VM cells. Here is the method: The ReNcell VM α-synuclein aggregation assay was conducted at Charles River Laboratories (CRL). ReNcell VM is an immortalized human neural progenitor cell line derived from the ventral mesencephalon region of the brain. ReNcell VM cells were selected as in vitro cellular model for the α-synuclein aggregation assay, based on their growth features, differentiation potential into terminally differentiated neurons and amenability to adenoviral transduction. Aggregated human wild type α-synuclein was overexpressed through adenoviral delivery. Aggregated α-synuclein was detected with the aggregate-selective anti-α-synuclein antibody MJFR14 using immunocytochemistry; total α-synuclein levels were detected with Syn205 (α/β-synuclein-specific antibody).
The ReNcell VM α-synuclein aggregation assay was applied for compound screening to identify compounds capable of degrading α-synuclein aggregates. […] Immunoreactivity toward aggregated (MJFR14) and total α-synuclein (Syn205) was quantified using high content-based segmentation of immunoactive areas in immunocytochemical images (performed with the IN Cell 2200 (GE Healthcare)), followed by quantification of immunofluorescent intensity (performed by CRL's developed algorithm using IN Cell Developer Toolbox software).
Percentage effect (PE): Inhibition in comparison to BLANK (0.1% DMSO).
PE=100−(signal of compound/average signal BLANK)×100
Compound-induced cytotoxicity (% remaining cells)
% remaining cells=(nuclei count of compound/average nuclei count of BLANK)×100
In the case of `COc1ccc2nc(-c3ccc(-c4ccnc(NCCOCCOc5ccc6c(c5)CN(C5CCC(=O)NC5=O)C6=O)c4)cc3)cn2c1` (stereo not drawn) [Compound 162640, 3-[6-[2-[2-[[4-[4-(6-methoxyimidazo[1,2-a]pyridin-2-yl)phenyl]pyridin-2-yl]amino]ethoxy]ethoxy]-3-oxidanylidene-1H-isoindol-2-yl]piperidine-2,6-dione], the “inhibition of MJFR14 immunoreactivity” value is “concentration-dependent inhibition”.

Staying with this test, now noted: ReNcell VM cells; read-out: Activity (DC50, concentration at which 50% of α-synuclein aggregates has been degraded).
On to `Cc1ncsc1-c1ccc(CNC(=O)[C@@H]2C[C@@H](O)CN2C(=O)[C@@H](NC(=O)COCCOCCOCCOCCOCCNc2ccc3nc(-c4ccc(-c5ccc(N(C)C)nc5)cc4)sc3c2)C(C)(C)C)cc1` (racemic) [Compound 161247, rac-(2R,4S)—N-[[4-(4-methyl-1,3-thiazol-5-yl)phenyl]methyl]-4-hydroxy-1-[rac-(2R)-2-[2-[2-[2-[2-[2-[2-[[2-[4-[6-(dimethylamino)pyridin-3-yl]phenyl]-1,3-benzothiazol-6-yl]-amino]ethoxy]ethoxy]ethoxy]ethoxy]ethoxy]ethanoylamino]-3,3-dimethyl-butanoyl]pyrrolidine-2-carboxamide], for which the DC50 is more than 10 µM.

For `Cc1ncsc1-c1ccc(CNC(=O)[C@@H]2C[C@@H](O)CN2C(=O)[C@@H](NC(=O)COCCOCCOCCOCCOCCNc2ccc(-c3ccc(-c4nc5ccc(N(C)C)cc5s4)cc3)cn2)C(C)(C)C)cc1` (racemic) [Compound 161598, rac-(2R,4S)—N-[[4-(4-methyl-1,3-thiazol-5-yl)phenyl]methyl]-4-oxidanyl-1-[rac-(2R)-2-[2-[2-[2-[2-[2-[2-[[5-[4-[6-(dimethylamino)-1,3-benzothiazol-2-yl]phenyl]pyridin-2-yl]amino]ethoxy]ethoxy]ethoxy]ethoxy]ethoxy]ethanoylamino]-3,3-dimethyl-butanoyl]pyrrolidine-2-carboxamide], the DC50 is more than 10 µM.

Turning to `CN(C)c1ccc(-c2ccc(-c3nc4ccc(NCCCOCCCOc5ccc6c(c5)CN(C5CCC(=O)NC5=O)C6=O)cc4s3)c(C(F)(F)F)c2)cn1` (stereo not drawn) [Compound 123374], the DC50 is more than 10 µM.

For the compound `COc1cc(-c2ccc(N(C)C)nc2)ccc1-c1nc2ccc(NCCOCCOc3ccc4c(c3)CN(C3CCC(=O)NC3=O)C4=O)cc2s1` (stereo not drawn) [Compound 129071], the DC50 is more than 10 µM.

On to `COc1ccc2nc(-c3ccc(-c4ccnc(NCCOCCOc5ccc6c(c5)C(=O)N(C5CCC(=O)NC5=O)C6=O)c4)cc3)cn2c1` (stereo not drawn) [Compound 129975], for which the DC50 is more than 10 µM.

With `COc1ccc2nc(-c3ccc(-c4ccnc(NC(=O)CCCCOc5ccc6c(c5)CN(C5CCC(=O)NC5=O)C6=O)c4)cc3)cn2c1` (stereo not drawn) [Compound 130177], the DC50 was more than 10 µM.

Consider `CN(C)c1ccc(-c2ccc(-c3nc4ccc(NC(=O)CCOCCOc5ccc6c(c5)CN(C5CCC(=O)NC5=O)C6=O)cc4s3)c(C(F)(F)F)c2)cn1` (stereo not drawn) [Compound 132560], for which the DC50 is more than 10 µM.

Regarding `CN1C(=O)CCC(N2Cc3cc(OCCOCCNc4ccc5nc(-c6ccc(-c7ccc(N(C)C)nc7)cc6C(F)(F)F)sc5c4)ccc3C2=O)C1=O` (stereo not drawn) [Compound 133065], the DC50 is more than 10 µM.

Turning to `O=C1CCC(N2Cc3cc(OCCCC(=O)Nc4cc(-c5ccc(-c6nc7ccc(F)cc7s6)cc5)ccn4)ccc3C2=O)C(=O)N1` (stereo not drawn) [Compound 133678], the DC50 was more than 10 µM.

Consider `O=C1CCC(N2Cc3cc(OCCOCCNc4cc(-c5ccc(-c6cn7ccccc7n6)cc5)ccn4)ccc3C2=O)C(=O)N1` (stereo not drawn) [Compound 137955], for which the DC50 is more than 10 µM.

As for `CN(C)c1ccc(-c2ccc(-c3nc4ccc(NC(=O)CCOCCOCCOc5ccc6c(c5)CN(C5CCC(=O)NC5=O)C6=O)cc4s3)c(C(F)(F)F)c2)cn1` (stereo not drawn) [Compound 138266], the DC50 was more than 10 µM.

`COc1ccc2nc(-c3ccc(-c4ccnc(NC(=O)CCCOc5ccc6c(c5)CN(C5CCC(=O)NC5=O)C6=O)c4)cc3)sc2c1` (stereo not drawn) [Compound 138876]: the DC50 was in the range of 0.9 to 10 µM.

Consider `CN(C)c1ccc(-c2ccc(-c3nc4ccc(NCCOCCOCCOCCOCCOCCOc5ccc6c(c5)C(=O)N(C5CCC(=O)NC5=O)C6=O)cc4s3)cc2)cn1` (stereo not drawn) [Compound 159985, 2-[2,6-bis(oxo)piperidin-3-yl]-5-[2-[2-[2-[2-[2-[2-[[2-[4-[6-(dimethylamino)-pyridin-3-yl]phenyl]-1,3-benzothiazol-6-yl]amino]ethoxy]ethoxy]ethoxy]ethoxy]ethoxy]-ethoxy]isoindole-1,3-dione], for which the DC50 was more than 10 µM.

As to `CN(C)c1ccc(-c2ccc(-c3nc4ccc(NCCOCCOc5ccc6c(c5)C(=O)N(C5CCC(=O)NC5=O)C6=O)cc4s3)cc2)cn1` (stereo not drawn) [Compound 160219, 2-[2,6-bis(oxo)piperidin-3-yl]-5-[2-[2-[[2-[4-[6-(dimethylamino)pyridin-3-yl]phenyl]-1,3-benzothiazol-6-yl]amino]ethoxy]ethoxy]isoindole-1,3-dione], the DC50 is more than 10 µM.

Take `CN(C)c1ccc(-c2ccc(-c3nc4ccc(NCCOCCOCCOCCOCCOCCOc5ccc6c(c5)CN(C5CCC(=O)NC5=O)C6=O)cc4s3)cc2)cn1` (stereo not drawn) [Compound 160273, 3-[6-[2-[2-[2-[2-[2-[2-[[2-[4-[6-(dimethylamino)pyridin-3-yl]phenyl]-1,3-benzothiazol-6-yl]amino]ethoxy]-ethoxy]ethoxy]ethoxy]ethoxy]ethoxy]-3-oxo-1H-isoindol-2-yl]piperidine-2,6-dione]: the DC50 lay in the range of 0.01 to 0.9 µM.

For `CN(C)c1ccc(-c2ccc(-c3nc4ccc(NCCOCCOc5ccc6c(c5)CN(C5CCC(=O)NC5=O)C6=O)cc4s3)cc2)cn1` (stereo not drawn) [Compound 160313, 3-[6-[2-[2-[[2-[4-[6-(dimethylamino)pyridin-3-yl]phenyl]-1,3-benzothiazol-6-yl]amino]ethoxy]ethoxy]-3-oxo-1H-isoindol-2-yl]piperidine-2,6-dione], the DC50 was more than 10 µM.

As to `CN(C)c1ccc2nc(-c3ccc(-c4ccc(NCCOCCN5C(=O)CCC(N6Cc7cc(O)ccc7C6=O)C5=O)nc4)cc3)sc2c1` (stereo not drawn) [Compound 160624, 1-(2-(2-((5-(4-(6-(dimethylamino)benzo[d]thiazol-2-yl)phenyl)pyridin-2-yl)amino)ethoxy)ethyl)-3-(5-hydroxy-1-oxoisoindolin-2-yl)piperidine-2,6-dione], the DC50 was more than 10 µM.

For the compound `CN(C)c1ccc(-c2ccc(-c3nc4ccc(NCCCCCOc5ccc6c(c5)C(=O)N(C5CCC(=O)NC5=O)C6=O)cc4s3)cc2)cn1` (stereo not drawn) [Compound 161103, 2-[2,6-bis(oxo)piperidin-3-yl]-5-[5-[[2-[4-[6-(dimethylamino)-pyridin-3-yl]phenyl]-1,3-benzothiazol-6-yl]amino]pentoxy]isoindole-1,3-dione], the DC50 was more than 10 µM.

On to `CN(C)c1ccc(-c2ccc(-c3cn4cc(OCCOCCOc5ccc6c(c5)C(=O)N(C5CCC(=O)NC5=O)C6=O)ccc4n3)cc2)c(F)n1` (stereo not drawn) [Compound 161111, 2-[2,6-bis(oxo)piperidin-3-yl]-5-[2-[2-[2-[4-[6-(dimethylamino)-2-fluoro-pyridin-3-yl]phenyl]imidazo[1,2-a]pyridin-6-yl]oxyethoxy]ethoxy]isoindole-1,3-dione], for which the DC50 was more than 10 µM.

`CN(C)c1ccc2nc(-c3ccc(-c4ccc(NCCOCCOc5ccc6c(c5)C(=O)N(C5CCC(=O)NC5=O)C6=O)nc4)cc3)sc2c1` (stereo not drawn) [Compound 161177, 2-[2,6-bis(oxo)piperidin-3-yl]-5-[2-[2-[[5-[4-[6-(dimethylamino)-1,3-benzothiazol-2-yl]phenyl]pyridin-2-yl]amino]ethoxy]ethoxy]isoindole-1,3-dione]: the DC50 was more than 10 µM.

As for `COc1ccc2nc(-c3ccc(-c4ccnc(NCCOCCOc5ccc6c(c5)CN(C5CCC(=O)NC5=O)C6=O)c4)cc3)cn2c1` (stereo not drawn) [Compound 162640, 3-[6-[2-[2-[[4-[4-(6-methoxyimidazo[1,2-a]pyridin-2-yl)phenyl]pyridin-2-yl]amino]ethoxy]ethoxy]-3-oxidanylidene-1H-isoindol-2-yl]piperidine-2,6-dione], the DC50 fell in the range of 0.01 to 0.9 µM.

`CN(C)c1ccc(-c2ccc(-c3nc4ccc(NCCOCCN5C(=O)CCC(N6Cc7c(N)cccc7C6=O)C5=O)cc4s3)cc2)cn1` (stereo not drawn) [Compound 162641, 3-(7-azanyl-3-oxidanylidene-1H-isoindol-2-yl)-1-[2-[2-[[2-[4-[6-(dimethylamino)pyridin-3-yl]phenyl]-1,3-benzothiazol-6-yl]amino]ethoxy]ethyl]piperidine-2,6-dione]: the DC50 was more than 10 µM.

As for `CN(C)c1ccc(-c2ccc(-c3nc4ccc(OCCOCCOc5ccc6c(c5)CN(C5CCC(=O)NC5=O)C6=O)cc4o3)cc2)cn1` (stereo not drawn) [Compound 163365], the DC50 fell in the range of 0.01 to 0.9 µM.

For the compound `Cc1ncsc1-c1ccc(CNC(=O)[C@@H]2C[C@@H](O)CN2C(=O)[C@@H](NC(=O)COCCOCCOc2ccc3nc(-c4ccc(-c5ccc(N(C)C)nc5)cc4C(F)(F)F)sc3c2)C(C)(C)C)cc1` [Compound 165554], the DC50 is more than 10 µM.

As to `Cc1ncsc1-c1ccc(CNC(=O)[C@@H]2C[C@@H](O)CN2C(=O)C(NC(=O)COCCOCCNc2cc(-c3ccc(-c4nc5ccc(F)cc5s4)cc3)ccn2)C(C)(C)C)cc1` (stereo partly drawn) [Compound 165810], the DC50 was more than 10 µM.

Regarding `O=C1CCC(N2Cc3cc(OCCOCCNc4cc(-c5ccc(-c6cn7cc(F)ccc7n6)cc5)ccn4)ccc3C2=O)C(=O)N1` (stereo not drawn) [Compound 165824], the DC50 was more than 10 µM.

For `CN(C)c1ccc2nc(-c3ccc(-c4ccnc(NCCOCCOc5ccc6c(c5)CN(C5CCC(=O)NC5=O)C6=O)c4)cc3)sc2c1` (stereo not drawn) [Compound 165950], the DC50 was more than 10 µM.

With `O=C1CCC(N2C(=O)c3ccc(OCCOCCNc4cc(-c5ccc(-c6nc7ccc(F)cc7s6)cc5)ccn4)cc3C2=O)C(=O)N1` (stereo not drawn) [Compound 165952], the DC50 was more than 10 µM.

With `O=C1CCC(N2Cc3cc(OCCOCCNc4ccc(-c5ccc(-c6cc7ccncc7[nH]6)cc5)cn4)ccc3C2=O)C(=O)N1` (stereo not drawn) [Compound 165954], the DC50 is more than 10 µM.

The values above are taken from patent US12377152B2, “Compounds for degrading alpha-synuclein aggregates and uses thereof” (APRINOIA THERAPEUTICS LIMITED, priority 2019, dated 2025).
